This note sets out measurements from paper PMC9063446, “Biochemical and in silico identification of the active site and the catalytic mechanism of the circadian deadenylase HESPERIN” (FEBS Open Bio, 2022).

Data set [1] concerns the target T1, AtHESPERIN (Hesperin) (Arabidopsis thaliana, UniProt A8MS41).
T1 construct: gene CCR4-4; HESPERIN cDNA in pATHRA (pET-15b derived), E. coli BL21-GOLD(DE3); N-terminal 6xHis tag cut by HRV 3C protease; SEC; oligomer, mainly trimer (~150 kDa)
T1 sequence (A8MS41 1-417): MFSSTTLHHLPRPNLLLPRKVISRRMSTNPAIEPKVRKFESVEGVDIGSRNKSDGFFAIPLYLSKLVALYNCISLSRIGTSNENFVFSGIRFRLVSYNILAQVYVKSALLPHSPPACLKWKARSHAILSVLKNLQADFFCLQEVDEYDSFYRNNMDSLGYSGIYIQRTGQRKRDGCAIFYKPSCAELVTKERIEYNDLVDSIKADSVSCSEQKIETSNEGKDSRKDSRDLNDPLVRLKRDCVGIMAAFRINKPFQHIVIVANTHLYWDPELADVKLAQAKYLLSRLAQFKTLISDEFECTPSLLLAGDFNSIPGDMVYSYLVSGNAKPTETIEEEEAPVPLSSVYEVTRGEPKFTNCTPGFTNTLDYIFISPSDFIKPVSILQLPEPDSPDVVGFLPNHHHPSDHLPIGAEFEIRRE
Nature of the data set: colorimetric methylene blue poly(A) degradation assay, modified Hanes-Woolf plot. To be noted: substrate poly(A); Buffer R with 2 mM MgCl2, 0.1 M NaCl, pH 6.5, 25 °C; competitive, reaction product. The data set is classed as biochemical.

Data set [2] concerns the molecule itself. Kind of data set: native gel or EMSA; 7% PAGE under nondenaturing conditions for acidic proteins; 16 ug AtHESPERIN incubated with urea, up to 4 M; BSA and urease as mass standards. (In general: Mobility shift assays separate free from complexed probe on a gel.)

As usually defined, the Ki is a measure of affinity in units of concentration, obtained from inhibition or displacement. With `Nc1ncnc2c1ncn2[C@@H]1O[C@H](COP(=O)(O)O)[C@@H](O)[C@H]1O` [AMP], the Ki in data set [1] came to 1800 ± 200 nM.

B1: AtHESPERIN (enzyme, Arabidopsis thaliana, UniProt A8MS41 1-417, looked up)
chain: T1 sequence (A8MS41 1-417)
notes: AtHESPERIN (Hesperin), circadian EEP deadenylase of Arabidopsis thaliana, UniProtKB A8MS41; cDNA cloned in pATHRA behind 6x His tag and HRV 3C site; The His tag was removed with HRV 3C protease (site LEVLFQ/GP), so residues of the site may be left at the N-terminus; It calls the oligomer mainly trimeric; also called native AtHESPERIN; wild-type AtHESPERIN; source: E. coli BL21-GOLD (DE3), …
As a reminder, the stoichiometry N is a count of units in the complex or per binding partner. In the case of B1, in data set [2], the “stoichiometry N” value is 3.
